The values below are quoted from earlier work in patent US6656217B1, “Medical device coated with a polymer containing a nitric oxide releasing organometallic nitrosyl compound useful for the prevention of platelet aggregation” (NovoVascular, Inc., priority 1996, dated 2003).

This data set concerns platelet aggregation.

With `[Cl][Ru]([Cl])[Cl].[N-]=O` [ruthenium nitrosyl trichioride], the “inhibition of platelet aggregation by nitric oxide generation from light activation” value is recorded as “failed to inhibit platelet aggregation”.
